Data published in patent US7732200B2, “Materials and methods for nerve grafting, selection of nerve grafts, and in vitro nerve tissue culture” (University of Florida Research Foundation, Inc., priority 2001, dated 2010).

How the values were obtained:
rat sciatic nerve = test: Human-to-rat acellular nerve xenograft model (GAP-43 profiles); type: in vivo; details: acellular human nerve fascicle grafts in rat, 8 days, 2 rats
Experimental: In the following experiments, the hypothesis that chondroitinase treatment improves nerve regeneration through acellular human nerve grafts in a rat xenograft model was tested. Subunits (individual fascicles) taken from human nerves were treated en bloc with vehicle or chondroitinase ABC. Ten-mm interpositional nerve grafts were joined to the rat host sciatic nerve by epineurial neurorrhaphy reinforced with fibrin glue. Each of 2 host rats received bilateral grafts, one vehicle-treated and one chondroitinase-treated graft. Regeneration was initially examined after 8 days. Axonal growth was assessed at specified spatial intervals within the graft by scoring GAP-43-immunopositive profiles in transverse sections.

sciatic nerve = test: Axonal regeneration into acellular interpositional nerve grafts (GAP-43 profiles); type: in vivo, rat
Description: (§1) Preparation of acellular nerve grafts treated with chondroitinase: Adult (180-200 g) female SPRAGUE DAWLEY rats (HARLAN, Indianapolis, Ind.) were used as nerve donors and recipient hosts. Donor rats were anesthetized with halothane and decapitated. Sciatic nerves were exposed through a gluteal muscle-splitting incision and isolated free of underlying fascia. A 15-mm nerve segment was excised rostral to the bifurcation into common peroneal and tibial nerves. The segments were rinsed with cold sterile Ringer's solution, stabilized by pinning the ends to a thin plastic support, and transferred to a cryogenic vial. The vials were submerged in liquid nitrogen for 2 minutes and then transferred to a 37° C. water bath for 2 minutes. This freeze/thaw cycle was repeated, yielding acellular nerve grafts that were then stored in liquid nitrogen. On the day before grafting, the nerve grafts were warmed to room temperature and incubated in 100 μl phosphate buffered saline pH 7.4 (PBS) containing 2 units/ml chondroitinase ABC (SIGMA, St. Louis, Mo.) or in PBS (vehicle) only for 16 hours at 37° C. The grafts were rinsed twice with Ringer's and kept on ice prior to use. The chondroitinase ABC preparation was highly purified and stated by the manufacturer to be essentially free of protease activity.
Interpositional nerve grafting for chondroitinase experiments. Twelve rats received bilateral acellular nerve grafts, one chondroitinase-treated and one vehicle-treated graft. Host rats were deeply anesthetized using xylazine (15 mg/kg, i.m.) and ketamine (110 mg/kg, i.p.). The sciatic nerve was exposed and supported by a plastic insert placed between the nerve and underlying tissue. […]
The main grafts were sectioned serially on the transverse plane in recorded measure to assess the extent of axonal growth by microscopy. […] GAP-43-positive axon profiles were scored using IMAGE-PRO PLUS software (MEDIA CYBERNETICS, Silver Springs, Md.).
(§2) Immunocytochemistry. Axonal regeneration was assessed by GAP-43 immunofluorescence and digital image analysis. […]

CSPG [1] = test: CSPG neoepitope (Ab1918) and laminin immunolabeling of acellular nerve segments treated en bloc; details: acellular rat sciatic nerve segments bathed en bloc 16 h, 2 units/ml
Description: as §1, with “The chondroitinase ABC preparation was highly purified and stated by the manufacturer to be essentially free of protease activity.” left out
as §2

CSPG [2] = test: CSPG neoepitope immunolabeling of chondroitinase-treated human nerve segments
Description: Many of the experiments described in the examples above performed using rat nerves also have been replicated using human nerve. Except where otherwise indicated, the procedures described in Examples 1 and 2 using rat nerve were also followed in Examples 6 and 7 using human nerve. Human sural and tibial nerves were obtained fresh from surgical leg amputation.
Human nerves were first examined to determine if their content of CSPG and laminin was similar to that observed in rat nerves. […] Human nerves stained for CSPG neoepitope and laminin are shown, respectively, in FIGS. 9A and 9B.

## chondroitinase ABC
Rat sciatic nerve
  average number of axons (GAP-43-immunopositive profiles) entering grafts vs control grafts: more than three-fold greater
Sciatic nerve; 4-day grafts, 3 animals
  axonal penetration vs control at 0.3 mm from the host-graft interface: five-fold greater
Sciatic nerve; 8-day grafts, 9 rats with bilateral grafts
  average number of axons (GAP-43-immunopositive profiles) entering grafts vs control grafts: more than three-fold greater
Sciatic nerve; 8-day grafts, GAP-43 and laminin double label
  propensity of axons to grow within basal laminae: unaltered
CSPG [1]
  CSPG degradation by Ab1918 neoepitope immunostaining: thoroughly degraded CSPG side-chains
CSPG [2]
  CSPG side chain degradation by neoepitope labeling: effectively degraded
